For one data set, the system named is HDAC. As to conditions: in vitro or in vivo, literature; cited from earlier work.
Data set [1] concerns insulin induction of CLK2 alternate splicing in FAO cells. Kind of data set: CLK2 splicing analysis (RT-PCR with primers flanking exon 4) in FAO cells. It is filed as cell-based, rat. As to conditions: 20 μM inhibitor pretreatment. As to the method: Splicing Analysis. Total RNA was isolated from FAO hepatocytes pre-treated with indicated inhibitor then Insulin for 2 hours. RT-PCR was performed using SuperScript One-Step RT-PCR with taq (Invitrogen) on 1 ug of total RNA using primers flanking exon 4 on Clk2 and Clk1.

Data set [2] relates to PGC-1alpha and SIRT1 phosphorylation in H2.35 cells. Kind of data set: Metabolic 32P PO4 labeling of H2.35 cells, insulin stimulated. It is filed as cell-based, mouse. To be noted: 30 minutes pretreatment, 40 minute insulin stimulation. On the procedure: PGC-1alpha and SIRT1 phosphorylation in vivo is stimulated by insulin and blocked by LY and TG003 as determined by metabolic ^32P PO4 labeling of H2.35 cells infected with adenovirus Flag-Ha-PGC-1alpha or Flag-HA-SIRT1. Cells were infected for 24 hours low glucose DMEM 4% FBS then serum starved for 24 hours in low glucose DMEM 0.5% BSA. Media was then replaced with PO4 free DMEM 0.5% BSA for 30 minutes, and cells were then pretreated with LY or TG003 for 30 minutes before addition of 100 uCi ^32P PO4. Cells were incubated in ^32P PO4 for 20 minutes before a 40 minute insulin stimulation. Cells were then washed with ice-cold PBS, harvested and lysed. Flag-HA-PCC-1alpha and Flag-HA-SIRT1 were immunoprecipitated used anti-flag agarose (Sigma-Aldrich, Cat. #A4596). Immunoprecipitates were washed extensively and analyzed by SDS-PAGE, transferred to PVDF membrane where ^32P signal was analyzed by a Bio-Rad Phosphor-Imager (Bio-Rad Laboratories) (FIG. 20A) and normalized to protein quantitated by western blot using anti-flag antibodies by a Versa-Doc camera system and quantitation software (Bio-Rad Laboratories) (FIG. 20B).

In data set [3] the test system is CLK2 phosphorylation of Sirt1 in HEK 293 cells. The experiment in a line: Metabolic 32P labeling of Flag-HA-Sirt1 in transfected HEK 293 cells. As to conditions: 40 uM TG003. It is filed as cell-based, human. As to the method: (§1) Cell Culture. HEK 293 Cells were cultured in DMEM+10% CCS. FAO Rat hepatocytes were grown in Hamm's F-12 media with 5% FBS. Prior to experiments or adenoviral infections media was switched to RPMI+0.5% BSA. H2.35 Mouse Hepatocytes were grown in DMEM (low glucose)+4% FBS and 2 μM Dexamethasome. Prior to experiments and infection, media was switched to DMEM (low glucose)+0.5% BSA. CLK inhibitor, TG003 (CalBiochem) was dissolved in DMSO.
(§2) Immunoprecipitation and Co-Immunoprecipitation. Cells were washed once with PBS containing Phosphatase inhibitors (5 mM Glycerol-2-phosphate, 20 mM NaF, and 0.2 mM Na OrthoVanadate), scraped into tubes, spun down, and lysed by 2× freeze-thaw cycles in 0.4% Triton, 100 mM NaCl, 20 mM KHepes pH 7.9, 1 mM EDTA, Phosphatase inhibitors, 1 mM PMSF, and 1× Protease Inhibitors (Roche). Immunoprecipitations were performed with M2 anti-flag agarose (sigma) or Anti-HA agarose (Roche) for 2 hours rotating at 4 degrees C. followed by 3 washes in lysis buffer. Products were resolved by SDS-PAGE and transferred to PVDF membranes for Western blot analysis.
Metabolic Labeling. HEK 293 were transfected as described above. […] Immunoprecipitates were resolved by SDS-PAGE and transferred to PVDF membrane, ^32PO4 was detected by exposing membrane to Phospho-imaging screen and followed by Western-Blot using anti-flag antibodies (M2, Sigma).

For data set [4], the system named is total phosphorylation of PGC-1alpha and Sirt1 in FAO cells. Kind of data set: Metabolic 32P labeling of PGC-1alpha and Sirt1 in FAO hepatocytes. It is filed as cell-based, rat. As to conditions: 40 μM TG003. As to the method: as §1
Metabolic Labeling. HEK 293 were transfected as described above. The next morning cells were switched to DMEM without PO4+10% CCS for 30 minutes, cells were then treated with or without TG003 for 30 minutes then 200 μCi of ^32PO4 was added for 2 hours. Cells were harvested and immunoprecipitation was performed as described above. Immunoprecipitates were resolved by SDS-PAGE and transferred to PVDF membrane, ^32PO4 was detected by exposing membrane to Phospho-imaging screen and followed by Western-Blot using anti-flag antibodies (M2, Sigma).
FAO Hepatocytes were infected with adenovirus as indicated in the figures for 2 days in RPMI+0.5% BSA. Metabolic labeling was performed as described above, except cells were incubated in ^32PO4 for 4 hours.

Data set [5] relates to CLK2 interaction with Sirt1 in HEK 293 cells. Kind of data set: Co-immunoprecipitation of endogenous Sirt1 with Flag-CLK2 in HEK 293 cells. In kind it is cell-based. As to conditions: HEK 293 cells transfected with Flag-CLK2. On the procedure: as §2
Data set [6] concerns CLK2 repression of PGC-1alpha coactivation of HNF4alpha. The experiment in a line: gAF1-luciferase (HNF4alpha response element) reporter assay in HEK 293 cells. In kind it is cell-based, human. To be noted: 20 μM TG003. On the procedure:
Transient Transfections. HEK 293 were transfected using PolyFect (Qiagen). 25 ng of reporter (gAF1-Luciferase) and 25 ng of pcDNA mouse HNF4-alpha were transfected with pcDNA mouse PGC-1 alpha and pcDNA Flag-CLK2. Equal amounts of total DNA were used for all transfections by adding appropriate amounts of empty vector pcDNA. TG003 (Calbiochem) was added 4 hours after transfection and cells were harvested the next morning. The data presented is the average of 3 replicates from a single experiment, all luciferase experiments were performed at least 3 times with similar results.

The test system of data set [7] is gluconeogenic genes (PGC-1alpha targets) in FAO hepatocytes. The experiment in a line: Northern blot of PGC-1alpha target genes in FAO hepatocytes. In kind it is cell-based, rat. On the procedure: Northern Blot and RNA analysis. FAO hepatocytes were infected with indicated adenovirus overnight in RPMI+0.5% BSA. Cells were grown for 2 more days in RPMI+0.5% BSA. Cells were treated as indicated. Total RNA was isolated using Trizol (Invitrogen). Northern blots using indicated cDNAs were performed on 15 μg of total RNA. Quantitation of RNA was performed by exposing membranes to phosphor-imager screens and analyzed by a Bio-Rad Personal Imager FX and Quantity-One quantitation software (Bio-Rad).

In data set [8] the test system is PEPCK mRNA expression in FAO hepatocytes. Kind of data set: Pepck mRNA by Q-RT-PCR in FAO hepatocytes. It is filed as cell-based, rat. As to conditions: 20 uM TG003 for 7 hours. As to the method:
Cells were grown in F-12+5% FBS then switched to 10% FBS and treated with or without 20 uM TG003 for 7 hours. Total RNA was isolated using Trizol (Invitrogen, Cat. # 15596-026) and reverse transcribed using oligo dT and super script II (Inivtrogen, Cat. # 18064-014). Pepck mRNA was measured by Q-RT-PCR relative to 36B4 control mRNA. Each bar is average+/−stdev N=3.
Cells were serum starved O/N and then treated with or without 200 nM Insulin for 2 hours. Total RNA was isolated using Trizol (Invitrogen, Cat. # 15596-026) and reverse transcribed using oligo dT and super script II (Inivtrogen, Cat. # 18064-014). Pepck mRNA was measured by Q-RT-PCR relative to 36B4 control mRNA. Each bar is average+/−stdev N=3.

The test system of data set [9] is diet-induced obese (DIO) C57BL/6 mice. Kind of data set: IP dosing of TG003 in DIO mouse model. In kind it is in vivo. As to the method:
Specifically, 5 week old C57BL/6 mice (male 18-22 grams, Charles River Labs, Willmington, Mass.) are placed either on a high fat diet (Research Diets Inc., New Brunswick, N.J., 60% kcal fat Rodent Diet Cat#D12492) or regular chow. Mice are weighed once a week for 5 weeks, test baseline fed glucose, lactate, triglycerides and insulin. At approximately 6 weeks or when mean weight of the DIO groups reach 40 grams, dosing is initiated. TG003 was dosed via IP injection at either 30 or 100 mg/kg (TG003 suspended in 2% HPMC+0.2% DOSS as in previous example). Control DIO and chow fed animals were dosed with IP injection of vehicle alone. Once dosing starts data collections was as follows: Week 1 time point includes a fasted blood glucose measurement, Week 2 blood collection, Week 3 an IPGTT and Week 4 is an endpoint blood and tissue collection.
Mice are dosed at the same time daily. Body weights are taken 2 times a week once dosing starts. Baseline measurements of fed glucose, lactate, triglycerides and insulin are taken at time 0 (commencement of dosing).
Insulin Assay: Mouse insulin levels were measured using the Linco Rat/Mouse Insulin ELISA kit (Cat. #EZRMI-13K). 0 week, 2 week and 4 week blood insulin levels are shown in FIGS. 27A, 27B and 27C respectively for 100 mg/kg TG003 study. 0 week, 2 week and 4 week blood insulin levels are shown in FIGS. 31A, 31B and 31C respectively for 30 mg/kg TG003 study.
IPGTT: Mice are fasted for a minimum of 16 hrs. A glucose reading is taken at time Zero using a glucose meter. Mice are injected with 2 g/kg D-Glucose at one minute time points. A glucose reading is taken at 15, 30, 60, and 120 minutes (Medisense Precision Extra, Blood Glucose Meter, Abbott Cat# 70297-01).

Data set [10] shares this test system. The experiment in a line: Oral dosing of TG003 in DIO mouse model. In kind it is in vivo. As to the method: Twenty 9 week old C57BL/6 mice were placed on 60% kcal % fat diet (high fat diet with 60% of calories from fat; Research Diets, Inc., New Brunswick, N.J. Cat. No. D12492) and 15 mice were placed on regular chow. Mice were weighed once a week for 5 weeks, baseline fed glucose, triglycerides and insulin was measured. At approximately 6 weeks on the high fat diet, or when the average body weight of the DIO mice becomes 40 grams, dosing began at various doses and preparations. Mice were dosed daily with either vehicle (2% HPMC+0.2% DOSS) or with TG003 suspended in vehicle and dosed via oral gavage at 100 mg/kg (10 animals each in DIO group; 9 animals in vehicle chow group and 6 animals in TG003 chow group). The study was divided into DIO groups with mean average body weight/cage. Chow fed groups were also sorted by mean average body weight/cage. Body weights were measured once weekly to adjust dosing concentrations for body weight.
Baseline blood on all mice for glucose, triglycerides, insulin, etc. was taken following a one hour food withdrawal. Once dosing started, data collections were as follows: Week 1 time point included fasted blood glucose and body temps for select groups, Week 2 was a fed blood collection, Week 3 fasted blood glucose, Week 4 body temps on select groups and endpoint blood and tissue collection. Body temperature of select groups post dosing on week 1 and week 4 was also taken. Concentration of TG003 compound is adjusted to proper dose according to the mean weight for each group weekly. Final blood collection of all groups was taken 1 hour after dosing in order to determine levels of drug in blood compared to original PK. Mice were not dosed on the day of week 2 blood collections. Mice are typically dosed in the a.m. and only dosed in the p.m. on a day following a 16 hr fast. A test for Free Fatty Acids is done with the plasma final blood collection and with final plasma collection. Assays were done as described above for TG003 IP dosing example.

The mark [11] stands for this setting: FAO hepatocytes overexpressing PGC-1alpha, increasing amounts of TG003.
[12] abbreviates: systemic intraperitoneal delivery, DIO mice, 30 or 100 mg/kg.

With `O=C(/C=C/c1cccc(C(=O)NO)c1)NO` [CBHA, m-carboxy-cinnamic acid bishydroxamic acid], in the data set on HDAC, the “inhibition of HDAC” value is “micromolar concentration or lower”.

As to depudecin, the “inhibition of HDAC” value with HDAC is recorded as “micromolar concentrations”.

In the case of `O=c1cc(N2CCOCC2)oc2c(-c3ccccc3)cccc12` [LY], in data set [1], the “insulin induction of CLK2 alternate splicing (truncated transcript)” value is given as “blocks”. In data set [2], the “insulin-stimulated PGC-1alpha phosphorylation” value is reported as “blocked” and the “insulin-stimulated SIRT1 phosphorylation” value was “blocked”.

In the case of `CCN1/C(=C/C(C)=O)Sc2ccc(OC)cc21` [TG003, (Z)-1-(3-ethyl-5-methoxy-2,3-dihydrobenzothiazol-2-ylidene) propan-2-one], in data set [3], the “incorporation of 32phosphate into Flag-HA-Sirt1 WT” value is “noticeably decreased” and the “shift in Sirt1 mobility caused by overexpression of CLK2” value is “abrogated”. Further, in data set [4], the “total phosphorylation of PGC-1alpha (32phosphate relative to protein levels)” value is on record as “decreased” and the “total phosphorylation of Sirt1 (32phosphate relative to protein levels)” value is reported as “decreased”. In addition, in [5], the “mobility of Sirt1 co-immunoprecipitated with CLK2” value is on record as “shifted to a band with faster mobility”. In addition, the “CLK2 repression of PGC-1 alpha (luciferase activity)” value in data set [6] was “partially rescues”. Moreover, in data set [7] (setting [11]), the “induction of G6Pase” value is reported as “seen in a dose dependent manner” and the “induction of Pepck” value was “seen in a dose dependent manner”. Also, the “CLK2 repression of PGC-1alpha induction of gluconeogenic genes (G6Pase, Pepck)” value in [7] (FAO hepatocytes, 40 μM TG003 for 1 hour then Fsk+Dex) is listed as “rescued”. In addition, the “insulin induction of CLK2 alternate splicing (truncated transcript)” value in data set [1] was “blocks”. In data set [2], the “insulin-stimulated PGC-1alpha phosphorylation” value is “blocked” and the “insulin-stimulated SIRT1 phosphorylation” value is listed as “blocked”. In addition, the “Pepck mRNA relative to 36B4” value in data set [8] was “induction”. For the same compound, in [9] (IP dosing, multiple injections), the “drug remaining at injection site upon sacrifice” value was “observed in the intraperitoneal cavity”. In data set [9] (setting [12]), the blood glucose levels entry is reported as “decrease”, the blood insulin levels result is listed as “decrease” and the body weight result was “decrease”. In addition, the “in vivo effect on body weight seen with IP dosing” value in [10] (100 mg/kg oral dosing) is given as “did not repeat”. The fed insulin entry in [10] (100 mg/kg oral vs vehicle, 2 week, DIO or chow groups) is reported as “not much of an effect”. In data set [10] (100 mg/kg oral vs vehicle, 4 week, DIO or chow groups), the fed blood glucose entry is given as “not much of an effect”. In [10] (DIO animals, 100 mg/kg oral, 1 week of dosing), the body temperature entry is listed as “significant drop”. The “drop in body temperature” value in data set [10] (DIO animals, 100 mg/kg oral, 4 weeks of dosing) is greater than 2 degree. Further, in data set [10] (chow fed group, 100 mg/kg oral), the body temperature result was “no significant effect”.

For trichostatin A [TSA], the “inhibition of HDAC” value in the data set with HDAC is “potent inhibitor”.

For the compound `C/C=C1\NC(=O)[C@H]2CSSCC/C=C/[C@H](CC(=O)N[C@H](C(C)C)C(=O)N2)OC(=O)[C@H](C(C)C)NC1=O` [Depsipeptide], in the data set on HDAC, the “inhibition of HDAC” value is reported as “micromolar concentrations”.

The values are drawn from patent publication US20070248590A1, “Modulators of CDC2-like kinases (CLKS) and methods of use thereof” (Sirtris Pharmaceuticals, Inc., priority 2005, published 2007).
